Results published in patent publication US20230036060A1, “DUAL-CONTROLLED DRUG AND PHOTOACTIVATABLE SYSTEM FOR SPATIOTEMPORAL CONTROL OF CELL THERAPY” (THE REGENTS OF THE UNIVERSITY OF CALIFORNIA, priority 2019, published 2023).

What was measured:
ERT2-mCherry = target: T1, ERT2-mCherry (Homo sapiens, UniProt P03372, G400V/L544A/M543A); assay: Time-lapse fluorescence microscopy of 4-OHT-induced nuclear translocation of ERT2-mCherry in HEK293T cells; format: cell-based; settings: 4-OHT 500 nM
T1 construct: expressed in transfected cells; host or cells: HEK293T
T1 sequence (P03372 311-547 G400V/M543A/L544A limits assumed): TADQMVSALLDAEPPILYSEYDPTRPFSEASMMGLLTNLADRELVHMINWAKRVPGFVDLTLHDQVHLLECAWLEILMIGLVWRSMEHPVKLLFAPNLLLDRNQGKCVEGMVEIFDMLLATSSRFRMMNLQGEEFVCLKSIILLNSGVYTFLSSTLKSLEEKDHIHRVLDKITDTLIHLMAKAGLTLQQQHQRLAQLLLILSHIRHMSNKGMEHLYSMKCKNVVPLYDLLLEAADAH
Procedure: FIG. 2E illustrates representative time-lapse fluorescence microscopy images of HEK293T cells transiently expressing ERT2-mCherry before and after the addition of nuclear-localizing 4-OHT (500 nM) (imaged every 2 min, 100× mag., scale bar=10 μm, n=6 independently measured cells).
Tamoxifen-induced nuclear import translocation dynamics in HEK293T cells were further characterized using an ERT2-mCherry fusion protein (Fig. S1F). Using time-lapse fluorescence microscopy, we discovered that nuclear translocation driven by 4-OHT (500 nM) occurred on the order of hours. ERT2-mCherry protein was only clearly nuclear-localized (with a nuclear-to-cytosolic mean fluorescence intensity ratio≥2) after approximately three hours (FIG. 2E), highlighting an effective time window for blue light stimulation to drive robust Cre-loxP recombination in ERT2-based photoactivatable construct designs.

[1] = cited from earlier work

time to significant 4-OHT-induced nuclear translocation of ERT2-mCh fusion protein (ERT2-mCherry)	nuclear-to-cytosolic mean fluorescence intensity ratio of ERT2-mCherry (ERT2-mCherry; after approximately three hours)	Compound	terminal elimination half-life (plasma concentrations) [1]
approximately 3 h	≥ 2	4-hydroxytamoxifen [4-OHT]	
		CC/C(=C(\c1ccccc1)c1ccc(OCCN(C)C)cc1)c1ccccc1 [tamoxifen]	5 to 7 h
